Results: US20240174690A1, “ANNULATED 2-AMINO-3-CYANO THIOPHENES AND DERIVATIVES FOR THE TREATMENT OF CANCER” (BOEHRINGER INGELHEIM INTERNATIONAL GMBH, priority 2021, published 2024)

Tests used:
GP2D cells = experiment: GP2D proliferation assay (120 h) (colorectal cancer, G12D); format: cell-based
Description: GP2D Proliferation Assay (120 h) (Colorectal Cancer, G12D)
GP2D cells (ATCC No. CRL-5807) are dispensed into white 384-well plates, flat and white bottom (Perkin Elmer, 6007680) at a density of 500 cells per well in 40 μl DMEM (Sigma, D6429)+1×GlutaMAX (Gibco, 35050038)+10% FCS (fetal calf serum). […] Compounds (10 mM stock in DMSO) are added at logarithmic dose series using the HP Digital Dispenser D300 (Tecan), including DMSO controls and normalizing for added DMSO. For the TO time point measurement, untreated cells are analyzed at the time of compound addition. Plates are incubated for 120 h, and cell viability is measured using CellTiter-Glo luminescent cell viability reagent (Promega product code G7570). Viability (stated as percent of control) is defined as relative luminescence units RLU of each well divided by the RLU of cells in DMSO controls. IC50 values are determined from viability measurements by non-linear regression using a four parameter model.

KRAS (G13D)::SOS1 = KRAS (G13D)::SOS1 (Homo sapiens (Human), UniProt P01116, C118S/G13D); experiment: KRAS::SOS1 AlphaScreen binding assay, KRAS G13D
Chain of KRAS (G13D)::SOS1 (P01116 other isoform, or with tags, fused parts or gaps G13D/C118S): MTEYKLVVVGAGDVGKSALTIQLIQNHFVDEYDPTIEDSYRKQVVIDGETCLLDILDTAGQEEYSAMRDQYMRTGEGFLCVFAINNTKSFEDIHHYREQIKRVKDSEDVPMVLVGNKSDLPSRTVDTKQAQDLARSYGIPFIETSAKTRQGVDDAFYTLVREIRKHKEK
Text: This assay can be used to examine the potency with which compounds according to the invention binding to (mutated) KRAS inhibit the protein-protein interaction between SOS1 and (mutated) KRAS e.g., KRAS WT, KRAS G12C, KRAS G12D, KRAS G12V, KRAS G13D. […] Low IC50 values in this assay setting are indicative of strong inhibition of protein-protein interaction between SOS1 and KRAS:
These assays measure the inhibitory effect of compounds on KRAS mutant protein-protein interactions using the Alpha Screen technology by Perkin Elmer.
The following (mutant) enzyme forms of KRAS and interacting proteins are used in these assays at the given concentrations: • KRAS (G12D) 1-169, N-terminal 6His-tag, C-terminal avi-tag (Xtal BioStructures, Inc.); final assay concentration 10 nM and SOS1 564-1049, N-terminal 229 GST-tag, TEV cleavage site (Viva Biotech Ltd); final assay concentration 5 nM; • KRAS (G12C) 1-169, N-terminal 6His-tag for purification, cleaved off, C-terminal avi-tag, biotinylated, mutations: C51S, C80L, C118S (in house); final assay concentration 7.5 nM and SOS1 564-1049, N-terminal 229 GST-tag, TEV cleavage site (Viva Biotech Ltd); final assay concentration 5 nM; • KRAS (G12V) 1-169, N-terminal 6His-tag for purification, cleaved off, C-terminal avi-tag, biotinylated, TEV cleavage site, mutation: C118S, GDP loaded (in house); final assay concentration 10 nM and SOS1 564-1049, N-terminal 229 GST-tag, TEV cleavage site (Viva Biotech Ltd); final assay concentration 10 nM; • KRAS (G13D) 1-169, N-terminal 6His-tag for purification, cleaved off, C-terminal avi-tag, biotinylated, TEV cleavage site, mutation: C118S, GDP loaded (in house); final assay concentration 10 nM and SOS1 564-1049, N-terminal 229 GST-tag, TEV cleavage site (Viva Biotech Ltd); final assay concentration 10 nM; • KRAS (WT) 1-169, N-terminal 6His-tag for purification, cleaved off, C-terminal avi-tag, biotinylated, TEV cleavage site, mutation: C118S, GDP loaded (in house); final assay concentration 10 nM and SOS1 564-1049, N-terminal 229 GST-tag, TEV cleavage site (Viva Biotech Ltd); final assay concentration 10 nM.
Test compounds dissolved in DMSO are dispensed onto assay plates (Proxiplate 384 PLUS, white, PerkinElmer; 6008289) using an Access Labcyte Workstation with the Labcyte Echo 55×. For the chosen highest assay concentration of 100 μM, 150 nL of compound solution are transferred from a 10 mM DMSO compound stock solution. A series of eleven fivefold dilutions per compound are transferred to the assay plate, compound dilutions are tested in duplicates. DMSO are added as backfill to a total volume of 150 nL.
The assays run on a fully automated robotic system in a darkened room below 100 Lux. To 150 nl of compound dilution 10 μl of a mix including KRAS mutant protein, SOS1 (final assay concentrations see above) and GDP nucleotide (Sigma G7127; final assay concentration 10 μM) in assay buffer (1×PBS, 0.1% BSA, 0.05% Tween 20) are added into columns 1-24.
After 30 minutes incubation time 5 μl of Alpha Screen bead mix in assay buffer are added into columns 1-23. Bead mix consists of AlphaLISA Glutathione Acceptor Beads (PerkinElmer, Cat No AL109) and AlphaScreen Streptavidin Donor Beads (PerkinElmer Cat No 6760002) in assay buffer at a final assay concentration of 10 μg/ml each.
Plates are kept at room temperature in a darkened incubator. After an additional 60 minutes incubation time the signal is measured in a PerkinElmer Envision HTS Multilabel Reader using the AlphaScreen specs from PerkinElmer.
Each plate contains up to 16 wells of a negative control depending on the dilution procedure (platewise or serial) (DMSO instead of test compound; with KRAS mutant::SOS1 GDP mix and bead mix; column 23) and 16 wells of a positive control (DMSO instead of test compound; with KRAS mutant::SOS1 GDP mix w/o bead mix; column 24).
As internal control known inhibitors of KRAS mutant::SOS1 interaction can be measured on each compound plate. […]

A375 cells = experiment: A375 CTG proliferation assay (120 h) (melanoma, wt, B-Raf mutant, negative control); format: cell-based; settings: Homo sapiens, A-375, CTG 120 h
Description: A375 CTG Proliferation Assay (120 h) (Melanoma, Wt, B-Raf Mutant, Negative Control)
A375 cells (ATCC CRL-1619) are dispensed into 384-well plates, flat and clear bottom (Greiner, PNr. 781091) at a density of 300 cells per well in 60 μL DMEM (Sigma 06429)+10% Fetal Calf Serum (HyClone, PNr.: SH30084.03) and incubated at 37° C. in a CO2 incubator overnight. The next day, compounds (10 mM stock in DMSO) are added at logarithmic dose series using the HP Digital Dispenser D300 (Tecan), including DMSO controls. Plates are incubated for 120 h, and cell viability is measured using CellTiter-Glo luminescent cell viability reagent (Promega product code G7570). Viability (stated as percent of control) is defined as relative luminescence units RLU of each well divided by the RLU of cells in DMSO controls. IC50 values are determined from viability measurements by non-linear regression using a four-parameter model.

IC50 (GP2D cells) | IC50 (KRAS (G13D)::SOS1) | IC50 (A375 cells) | SMILES
6 nM | – | – | C[C@H](Oc1cc(N2C[C@H](C)NC3(CC3)C2)nc(-c2onc3c2CCC[C@@]32CCCc3sc(N)c(C#N)c32)n1)[C@@H]1CCCN1C [I-8]
6 nM | 173 nM | – | C[C@H](Oc1cc(N2CC[C@H](N(C)C)C2)nc(-c2noc3c2CCC[C@@]32CCCc3sc(N)c(C#N)c32)n1)[C@@H]1CCCN1C [II-49]
164 nM | – | – | C[C@H](Oc1cc(N2CCC[C@H](O)C2)nc(-c2noc3c2CCC[C@@]32CCCc3sc(N)c(C#N)c32)n1)[C@@H]1CCCN1C [II-57]
111 nM | – | 2540 nM | C[C@H](Oc1cc(N2CCN(C)C2=O)nc(-c2noc3c2CCC[C@@]32CCCc3sc(N)c(C#N)c32)n1)[C@@H]1CCCN1C [II-75]
824 nM | – | – | C[C@H](Oc1cc(-c2cnn(C)n2)nc(-c2noc3c2CCC[C@@]32CCCc3sc(N)c(C#N)c32)n1)[C@@H]1CCCN1C [II-86]
394 nM | – | 1140 nM | CO[C@@H]1C[C@@H]([C@H](C)Oc2cc(-c3ccn(C)n3)nc(-c3noc4c3CCC[C@@]43CCCc4sc(N)c(C#N)c43)n2)N(C)C1 [II-91]
510 nM | – | – | C[C@H](Oc1cc(-c2ccn3ncnc3c2)nc(-c2noc3c2CCC[C@@]32CCCc3sc(N)c(C#N)c32)n1)[C@@H]1CCCN1C [II-104]
248 nM | – | – | C[C@H](O)Cn1ccc(-c2cc(O[C@@H](C)[C@@H]3CCCN3C)nc(-c3noc4c3CCC[C@@]43CCCc4sc(N)c(C#N)c43)n2)n1 [II-112]
– | – | 259 nM | C[C@H](Oc1cc(-n2cc(-c3cccnc3)nn2)nc(-c2noc3c2CCC[C@@]32CCCc3sc(N)c(C#N)c32)n1)[C@@H]1CCCN1C [II-123]

Second part, the compound before the results:

SMILES | IC50 (GP2D cells) | IC50 (KRAS (G13D)::SOS1) | IC50 (A375 cells)
C[C@H](Oc1cc(N2CCNC3(CC3)C2)nc(-c2onc3c2CCC[C@@]32CCCc3sc(N)c(C#N)c32)n1)[C@@H]1CCCN1C [I-5] | 1 nM | – | –
C[C@H](Oc1cc(N2CCNC[C@]23CCOC3)nc(-c2noc3c2CCC[C@@]32CCCc3sc(N)c(C#N)c32)n1)[C@@H]1CCCN1C [II-50] | 3 nM | – | –
C[C@H](Oc1cc(-n2cc3c(n2)CCNC3)nc(-c2noc3c2CCC[C@@]32CCCc3sc(N)c(C#N)c32)n1)[C@@H]1CCCN1C [II-53] | 29 nM | – | –
C[C@H](Oc1cc(N2CCNC3(CC3)C2)nc(-c2noc3c2CCC[C@@]32CCCc3sc(N)c(C#N)c32)n1)[C@@H]1CCCN1C [II-54] | 1 nM | 33 nM | –
C[C@H](Oc1cc(N2CCN(C)CC2)nc(-c2noc3c2CCC[C@@]32CCCc3sc(N)c(C#N)c32)n1)[C@@H]1CCCN1C [II-55] | 46 nM | 47 nM | –
C[C@H](Oc1cc(N2C[C@H](C)N[C@@H](C)C2)nc(-c2noc3c2CCC[C@@]32CCCc3sc(N)c(C#N)c32)n1)[C@@H]1CCCN1C [II-56] | 13 nM | – | –
C[C@H](Oc1cc(N2CCNC2=O)nc(-c2noc3c2CCC[C@@]32CCCc3sc(N)c(C#N)c32)n1)[C@@H]1CCCN1C [II-64] | 22 nM | – | 2580 nM
C[C@H](Oc1cc(-n2ccnc2)nc(-c2noc3c2CCC[C@@]32CCCc3sc(N)c(C#N)c32)n1)[C@@H]1CCCN1C [II-69] | 585 nM | – | –
C[C@H](Oc1cc(-n2cncn2)nc(-c2noc3c2CCC[C@@]32CCCc3sc(N)c(C#N)c32)n1)[C@@H]1CCCN1C [II-70] | – | 19 nM | –
C[C@H](Oc1cc(N2CCCC3(COC3)C2)nc(-c2noc3c2CCC[C@@]32CCCc3sc(N)c(C#N)c32)n1)[C@@H]1CCCN1C [II-72] | – | 9 nM | –
C[C@H](Oc1cc(C2CCOCC2)nc(-c2noc3c2CCC[C@@]32CCCc3sc(N)c(C#N)c32)n1)[C@@H]1CCCN1C [II-76] | – | 41 nM | –
C[C@H](Oc1cc(N2CCOC3(COC3)C2)nc(-c2noc3c2CCC[C@@]32CCCc3sc(N)c(C#N)c32)n1)[C@@H]1CCCN1C [II-77] | 37 nM | 8 nM | > 3000 nM
C[C@H](Oc1cc([C@@H]2CCOC2)nc(-c2noc3c2CCC[C@@]32CCCc3sc(N)c(C#N)c32)n1)[C@@H]1CCCN1C [II-94] | 26 nM | 9 nM | > 3000 nM
C[C@H](Oc1cc(-c2ccn(C)n2)nc(-c2noc3c2CCC[C@@]32CCCc3sc(N)c(C#N)c32)n1)[C@@H]1CCCN1C [II-96] | 809 nM | – | –
C[C@H](Oc1cc(-n2cncc3ccnc2-3)nc(-c2noc3c2CCC[C@@]32CCCc3sc(N)c(C#N)c32)n1)[C@@H]1CCCN1C [II-105] | 463 nM | – | –
C[C@H](Oc1cc(-c2cnsc2)nc(-c2noc3c2CCC[C@@]32CCCc3sc(N)c(C#N)c32)n1)[C@@H]1CCCN1C [II-111] | 443 nM | – | –
C[C@H](Oc1cc(-n2ccncc2=O)nc(-c2noc3c2CCC[C@@]32CCCc3sc(N)c(C#N)c32)n1)[C@@H]1CCCN1C [II-116] | – | 17 nM | –
C[C@H](Oc1cc(-c2ccn(C[C@@H](C)O)n2)nc(-c2noc3c2CCC[C@@]32CCCc3sc(N)c(C#N)c32)n1)[C@@H]1CCCN1C [II-117] | 276 nM | – | –
CNC(=O)c1cn(-c2cc(O[C@@H](C)[C@@H]3CCCN3C)nc(-c3noc4c3CCC[C@@]43CCCc4sc(N)c(C#N)c43)n2)nn1 [II-122] | – | – | 761 nM
